In patent US8007790B2, “Methods for treating polycystic kidney disease (PKD) or other cyst forming diseases” (Stowers Institute for Medical Research, priority 2006, dated 2011):
{P} = phosphate

Legend:
[1] = tested on: FIP2; assay: Immunoblot of FIP2 level in TNF-alpha treated IMCD cells; format: cell-based
Experimental: (§1) The disruption of PC2 localization by TNF-alpha was further confirmed using immunoprecipitation, western blotting, and a TUNEL Assay. Immunoprecipitation and Western blotting were performed on whole-cell lysates as previously described. Li et al, Polycystin-1 and polycystin-2 regulate the cell cycle through the helix-loop-helix inhibitor Id2. Nat Cell Biol, 7(12):1202-12 (2005). The antibodies used for Western blotting included rabbit polyclonal anti-FIP2 51, rabbit anti-PC2 polyclonal antibody 96525 50, rabbit anti-PC1 polyclonal antibody 96521, rabbit anti-Rab8 polyclonal antibody and rabbit anti-TNFR-I polyclonal antibody. Secondary antibodies used included: goat-anti-rabbit IgG-fluorescein isothiocyanate (FITC Molecular Probes, Eugene, Oreg.), goat-anti-mouse IgG-Texas Red, (1:500 dilution; Molecular Probes). For western blotting, goat-anti-rabbit IgG-horseradish peroxidase (HRP or goat-anti-mouse IgG-HRP, 1:10,000 dilution; Amersham Pharmacia Biotech) were used as secondary antibodies.
(§2) Primary cell cultures were prepared as described previously. The cells were propagated in DMEM/F12 supplemented with 5% FBS, 5 μg/ml insulin, 5 μg/ml transferrin and 5 ng/ml sodium selenite (ITS) and 100 IU/ml penicillin G and 0.1 mg/ml streptomycin. […]

[2] = tested on: Pkd2+/- mice; assay: Cyst formation in Pkd2+/- mice injected with TNF-alpha; format: in vivo; details: 5 μg/mouse/week intraperitoneal, week 4 to week 8.5; control 0 of 10; Fisher's exact test p=0.04
Experimental: The in vitro results described above indicate that TNF-alpha may be a strong physiological modifier of FIP2 that promotes the ADPKD disease phenotype at the organismal level. To test this hypothesis in vivo, 4 week old Pkd2+/− mice were directly injected intra-peritoneally with TNF-alpha (5 μg/mouse, 1 injection/wk) for 4 weeks. Pkd2 mutant mice (Pkd2-183) were kindly provided by Stephan Somlo (Yale University). For TNF-alpha (Genzyme Diagnostic, Cambridge, Mass.) treatment experiments, mice were intraperitoneally injected weekly, from week 4 (day 28) to week 8.5 (day 60), with 5 μg of TNF-alpha per mouse per week or phosphate buffered saline (PBS). 9-17 week old Pkd2+/− mice developed cysts at a frequency of 0.21. Accordingly, the natural frequency of cyst formation may be much lower in the 4 week olds.

[3] = tested on: TNF-alpha receptor (TNFR); assay: Immunoblot of TNFR level in TNF-alpha treated IMCD cells; format: cell-based
Experimental: as §1, §2

[4] = tested on: IMCD cells; format: cell-based
Experimental: To confirm that localization of PC2 was not due to cell death, a TUNEL Assay was performed. Cells treated with or without TNF-alpha were fixed with 4% PFA. The TUNEL assay was performed using a fluorescent apoptosis-detection system (R&D systems, Minneapolis, Minn.) according to the manufacturer's instructions. Fixed cells were treated with TACS-nuclease for the positive control.

[5] = tested on: PC2 localization in inner medullary collecting duct (IMCD) cells; assay: Immunofluorescence of PC2 localization in IMCD cells after TNF-alpha induction; format: cell-based
Experimental: […] IMCD (ATCC catalog no. CRL-2123) cells were cultured in Dulbecco's modified Eagle's medium/F12 medium supplemented with 10% (v/v) fetal bovine serum (Invitrogen). Then, these cells were induced with TNF-alpha at a final concentration of 200 ng/ml. Immunofluorescence of the IMD cells was performed before and after 16 hours of TNF-alpha exposure.
Immunofluorescence was carried out as previously described. Li et al, Polycystin-1 and polycystin-2 regulate the cell cycle through the helix-loop-helix inhibitor Id2. Nat Cell Biol, 7(12):1202-12 (2005). Primary antibodies were used at the following dilutions: FIP2 (1:100), PC1 (1:500), PC2 (1:500), and flag (1:500). Secondary antibodies used included goat-anti-rabbit IgG-fluorescein isothiocyanate (Molecular Probes, Eugene, Oreg.) and goat-anti-mouse IgG-Texas Red (1:500 dilution; Molecular Probes). Images were captured on an inverted microscope (Axiovert 200M, Carl Zeiss, inc.) equipped with a spinning disc confocal head (Yogogawa), Argon-Krypton laser system (Prairie Technologies, Inc.), and ORCA-ER CCD camera (Hamamatsu). Images were acquired using the Metamorph software (Molecular Devices) and 3D image reconstruction was performed using the Volocity (Improvision, Inc.) software.
The disruption of PC2 localization by TNF-alpha was further confirmed using immunoprecipitation, western blotting, and a TUNEL Assay. […]

[6] = tested on: cultured embryonic kidneys (E15.5); assay: Mouse embryonic kidney organ culture cyst formation assay
Experimental: Embryonic kidneys were dissected in PBS (with calcium and magnesium) plus penicillin-streptomycin-glutamine (GiBCO, Grand Island, N.Y.) from embryos of wild type CD1 mice at E15.5, E16.5 or E17.5 and of C57BL/6 Pkd1+/− or C57BL/6 Pkd2+/− mice or their wild type counterparts at E15.5. The dissected kidneys were cultured at 37° C. in DMEM/F12 containing 2 mM L-glutamine, 10 mM Hepes, 5 μg/ml insulin, 5 μg/ml transferrin, […] selenium, 25 ng/ml prostaglandin E1, 32 pg/ml T3 and 250 IU/ml penicillin-streptomycin. The kidneys were cultured with or without TNF-alpha (Genzyme Diagnostic, Cambridge, Mass.) at different concentrations for 48 hours and then 50 μM 8-Bromo-cyclic AMP (Sigma, St. Louis, Mo.) was added for 5 days. The cultured kidneys were then fixed with 4% paraformaldehyde (PFA) in PBS for 6 hours, washed with PBS twice for 5 minutes each, and transferred to 70% EtOH for short-term storage at room temperature or for more extended storage at 4° C. The fixed kidney samples were subsequently processed for Hematoxylin and Eosin staining following a common histology protocol.
To test the effect of TNF-alpha treatment, the culture conditions were modified using E15.5 kidneys and a low concentration of cAMP, such that there was no cyst formation (0/32 kidneys observed) in the absence of TNF-alpha (see top panel FIGS. 2A and 2B). […] (FIG. 2B). […] Thus, in FIG. 2B, treatment with different concentrations of TNF-alpha for 5 days triggered cyst formation in Pkd2+/− cultured kidneys from E15.5 embryos.

[7] = tested on: Pkd2+/- mice; assay: Cyst formation in Pkd2+/- mice treated with etanercept; format: in vivo; details: 25 μg/mouse/week, 10 weeks, n=14; PBS control 25% (n=16); Fisher's exact test p=0.05
Experimental: Chronic inhibition of FIP2 expression by a FIP2 inhibitor such as a TNF-alpha inhibitor may alleviate cyst formation. For the TNF-alpha inhibitor etanercept (AMGEN, Thousand Oaks, Calif.), treatment experiments, mice were intraperitoneally injected weekly, from week 8.5 (day 60) to week 18.5 (day 130), with 25 μg of etanercept per mouse per week or phosphate buffered saline (PBS).
To this end, 8-week old Pkd2+/− mice were treated with either etanercept […] administered at 25 μg/mouse/week), or phosphate buffered saline (PBS) in the control group. […] This frequency is consistent with that reported previously (21%, n=29). Remarkably, none of etanercept-treated mice developed kidney cysts (n=14).

[8] = tested on: PC2 localization in IMCD cells; assay: Rescue of PC2 localization by FIP2 siRNA in TNF-alpha treated IMCD cells (immunostaining); format: cell-based
Experimental: (§3) RNAi specific to FIP2 was used to test if the effect of TNF-alpha on PC2 localization was FIP2-dependent. IMCD cells were transfected with siRNA specific for FIP2 to determine if FIP2 caused mislocalization of PC2 upon TNF-alpha induction.
(§4) The transfection was performed using the DharmaFECT siRNA transfection reagent (Dharmacon, Chicago, Ill.) according to the manufacturer's protocol.
In FIGS. 1C and 1 D, anti-PC2 antibodies (96525 FIG. 1C; YCC2 FIG. 1D) at a concentration of 1:500 were used to determine whether FIP2 siRNA reduces or eliminates FIP2 expression to restore PC2 localization in TNF-alpha treated IMCD cells.
(§5) In FIG. 7A, 4 different siRNAs against FIP2 were transfected into IMCD cells. In FIG. 7B, a Western blot was performed as described above using anti-FIP2 antibody to determine FIP2 levels in IMCD cells, which were transfected with siRNA#05 (SEQ ID NO: 2) and #08 (SEQ ID NO: 8) and then treated with TNF-alpha for 16 hours. In FIGS. 7C-7F, immunostaining was performed as described above with 96525 anti-PC2 antibody or YCC2 anti-PC2 antibody at a concentration of 1:500 with IMCD cells transfected with siRNA#08 (SEQ ID NO: 8) before and after TNF-alpha induction.

[9] = tested on: FIP2; assay: FIP2 siRNA knock-down of FIP2 expression in IMCD cells (Western blot); format: cell-based; details: transfected IMCD cells, comparison of 4 siRNAs
Experimental: as §3, §4, §5

Substance: TNF-alpha
- induction of FIP2 level [1]: 2 fold
- mice that developed unilateral cysts [2]: 4 of the 10
- increase of TNFR levels [3]: 35%
- TUNEL staining (cell death) [4]: negative for TUNEL staining
- cells showing loss of PC2 staining at the plasma membrane and cilia ([5]; 200 ng/ml TNF-alpha, 16 hours, anti-PC2 antibody 96525): 100%
- PC2 cilia localization ([5]; TNF-alpha 16 hr, YCC2 anti-PC2 antibody, confocal microscopy): loss of PC2 localization along the primary cilia
- lowest TNF-alpha concentration resulting in cyst formation ([6]; Pkd2+/- embryonic kidneys, 5 days): 1.5 ng/mL
- cultured kidneys with cyst formation ([6]; wild type embryonic kidneys, 6.25-12.5 ng/ml TNF-alpha, five days, low cAMP): 20/20
- lowest TNF-alpha concentration resulting in cyst formation ([6]; wild type embryonic kidneys, five days): 6.25 ng/mL

Substance: etanercept
- mice that developed kidney cysts [7]: none

Substance: siRNA#08: siRNA against FIP2 (Dharmacon); sense SEQ ID NO: 7, antisense SEQ ID NO: 8 (sense CCAUGAAGCUAAAUAAUCAUU; antisense UGAUUAUUUAGCUUCAUGGUU; sense: RNA, backbone not given here; antisense: RNA, 5' {P}, backbone not given here)
- PC2 localization after TNF-alpha induction ([8]; immunostaining with 96525 anti-PC2 antibody): rescued the TNF-alpha effect on PC2 localization
- PC2 cilia localization after TNF-alpha induction ([8]; immunostaining with YCC2 anti-PC2 antibody): rescued the PC2 cilia localization
- effect on FIP2 expression [9]: strongest effect
